Assay results as given in article PMC6925260 (Nature Communications, 2019).
Changes are numbered by the printed parent chain. Like-named read-outs stand apart in the source and are kept apart here.

Key:
[1] = molecular target: T1, K329A PPARγ LBD / NCoR peptide (Homo sapiens, UniProt P37231, K329A); experiment: Fluorescence anisotropy, NCoR peptide to K329A PPARγ LBD; assay type: binding; conditions: read-out: NCoR dissociation constant average, K329A; Supp. Fig. 11
T1 construct: 6× His tag with TEV recognition site (N, cleaved yes); made in house; host or cells: E. coli BL21 (DE3) gold
Protocol: (§1) These samples were then plated as usual.

[2] = molecular target: T2, K347A PPARγ LBD / NCoR peptide (Homo sapiens, UniProt P37231, K347A); experiment: Fluorescence anisotropy, NCoR peptide to K347A PPARγ LBD; assay type: binding; conditions: read-out: NCoR dissociation constant average, K347A; Supp. Fig. 11
T2 construct: 6× His tag with TEV recognition site (N, cleaved yes); made in house; host or cells: E. coli BL21 (DE3) gold
Protocol: as §1

[3] = molecular target: T3, N340A PPARγ LBD / NCoR peptide (Homo sapiens, UniProt P37231, N340A); experiment: Fluorescence anisotropy, NCoR peptide to N340A PPARγ LBD; assay type: binding; conditions: read-out: NCoR dissociation constant average, N340A; Supp. Fig. 11
T3 construct: 6× His tag with TEV recognition site (N, cleaved yes); made in house; host or cells: E. coli BL21 (DE3) gold
Protocol: as §1

[4] = molecular target: T4, K329A PPARγ LBD / SMRT peptide (Homo sapiens, UniProt P37231, K329A); experiment: Fluorescence anisotropy, SMRT peptide to K329A PPARγ LBD; assay type: binding
T4 construct: 6× His tag with TEV recognition site (N, cleaved yes); made in house; host or cells: E. coli BL21 (DE3) gold
T4 sequence (P37231 230-505 K329A): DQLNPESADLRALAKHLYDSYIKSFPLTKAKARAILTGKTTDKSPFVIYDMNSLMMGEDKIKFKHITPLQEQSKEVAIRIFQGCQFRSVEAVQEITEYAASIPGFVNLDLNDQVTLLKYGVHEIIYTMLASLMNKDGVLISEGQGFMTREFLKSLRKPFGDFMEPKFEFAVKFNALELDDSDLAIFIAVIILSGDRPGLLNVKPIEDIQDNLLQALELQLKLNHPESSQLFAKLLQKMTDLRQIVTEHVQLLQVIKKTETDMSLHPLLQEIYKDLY
Protocol: as §1

[5] = molecular target: T5, PPARγ LBD (wt) / MED1 LxxLL peptide (Homo sapiens, UniProt P37231); experiment: Fluorescence anisotropy, MED1 peptide to wt PPARγ LBD (alone or ligand bound); assay type: binding
T5 construct: 6× His tag with TEV recognition site (N, cleaved yes); made in house; host or cells: E. coli BL21 (DE3) gold
T5 sequence (P37231 230-505): T4 sequence (P37231 230-505 K329A) with A100K
Protocol: as §1

[6] = molecular target: PPARγ LBD, deletion of helix 12 / NCoR peptide; experiment: Fluorescence anisotropy, NCoR peptide to helix 12 deleted (DH12) PPARγ LBD; assay type: binding; conditions: read-out: NCoR dissociation constant average, DH12; Supp. Fig. 11
Protocol: as §1

[7] = molecular target: T6, N340A PPARγ LBD / SMRT peptide (Homo sapiens, UniProt P37231, N340A); experiment: Fluorescence anisotropy, SMRT peptide to N340A PPARγ LBD; assay type: binding
T6 construct: 6× His tag with TEV recognition site (N, cleaved yes); made in house; host or cells: E. coli BL21 (DE3) gold
T6 sequence (P37231 230-505 N340A): T4 sequence (P37231 230-505 K329A) with A100K, N111A
Protocol: as §1

[8] = molecular target: PPARγ LBD (wt) / CBP peptide (Homo sapiens, UniProt P37231); experiment: Fluorescence anisotropy, CBP peptide to wt PPARγ LBD
[9] = molecular target: T7, PPARγ LBD (wt) / NCoR CoRNR box peptide (Homo sapiens, UniProt P37231); experiment: Fluorescence anisotropy, NCoR peptide to wt PPARγ LBD (alone or ligand bound); assay type: binding
T7 construct: 6× His tag with TEV recognition site (N, cleaved yes); made in house; host or cells: E. coli BL21 (DE3) gold
T7 sequence (P37231 230-505): T4 sequence (P37231 230-505 K329A) with A100K
Protocol: as §1

[10] = molecular target: T8, PPARγ LBD (wt) / SMRT CoRNR box peptide (Homo sapiens, UniProt P37231); experiment: Fluorescence anisotropy, SMRT peptide to wt PPARγ LBD (alone or ligand bound); assay type: binding
T8 construct: 6× His tag with TEV recognition site (N, cleaved yes); made in house; host or cells: E. coli BL21 (DE3) gold
T8 sequence (P37231 230-505): T4 sequence (P37231 230-505 K329A) with A100K
Protocol: as §1

[11] = molecular target: T9, K347A PPARγ LBD / SMRT peptide (Homo sapiens, UniProt P37231, K347A); experiment: Fluorescence anisotropy, SMRT peptide to K347A PPARγ LBD; assay type: binding
T9 construct: 6× His tag with TEV recognition site (N, cleaved yes); made in house; host or cells: E. coli BL21 (DE3) gold
T9 sequence (P37231 230-505 K347A): T4 sequence (P37231 230-505 K329A) with A100K, K118A
Protocol: as §1

K347A PPARg LBD = experiment: Supplementary Figure 11: fluorescence anisotropy dissociation constants, K347A (peptide not given); assay type: binding

O=C(Nc1ccccc1)c1cc([N+](=O)[O-])ccc1Cl [GW9662]
Kd [1]: 1820 nM | Kd [2]: 590 nM | Kd [3]: 485 nM | SMRT Kd, wt vs K329A mean difference ± SE ([4]; Supp. Fig. 12): -1916±631 | Kd ([4]; Supp. Fig. 12, read-out: SMRT dissociation constant average, K329A): 2550 nM | Kd ([4]; run SMRT FP 4 5 18, read-out: SMRT dissociation constant, K329A): 1330 nM | Kd ([4]; run SMRT FP 4 6 18, read-out: SMRT dissociation constant, K329A): 1850 nM | Kd ([4]; run SMRT FP 4 10 18, T0070907 value 5903 excluded by the authors, read-out: SMRT dissociation constant, K329A): 4470 nM | effect on coactivator LxxLL box peptide affinity ([5]; Supp. Table 9 summary, comparator apo): no effect | Kd ([5]; read-out: MED1 Kd, wt, Supp. Table 2, wt values not from the same experiment as PPARγC313A,Q322C-BTFA (first wt column)): 4220 nM | Kd ([5]; read-out: MED1 WT Kd, Supp. Table 1, wt PPARγ LBD, FITC peptide 50 nM, fluorescence anisotropy, pH 7.4, 2 h room temperature): 4900 nM | Kd [6]: 93 nM | SMRT Kd, wt vs N340A mean difference ± SE ([7]; Supp. Fig. 12): -323 ±631 | Kd ([7]; Supp. Fig. 12, read-out: SMRT dissociation constant average, N340A): 957 nM | Kd ([7]; run SMRT FP 4 5 18, read-out: SMRT dissociation constant, N340A): 855 nM | Kd ([7]; run SMRT FP 4 6 18, read-out: SMRT dissociation constant, N340A): 1200 nM | Kd ([7]; run SMRT FP 4 10 18, read-out: SMRT dissociation constant, N340A): 811 nM | Kd ([8]; read-out: CBP Kd, ligand-bound, run 1): 4700 nM | Kd ([8]; read-out: CBP Kd, ligand-bound, run 2): 3350 nM | NCoR Kd mean difference ±SE, Apo vs ligand ([9]; Supp. Table 3, wt, one-way ANOVA, Dunnett's, 11 df): 150 ±39 | effect on corepressor CoRNR box peptide affinity ([9]; Supp. Table 9 summary, NCoR and SMRT, comparator apo): é | Kd ([9]; read-out: NCoR Kd, wt, Supp. Table 2, wt values not from the same experiment as PPARγC313A,Q322C-BTFA (first wt column)): 273 nM | Kd ([9]; read-out: NCoR Kd, WT, ligand-bound, run 1): 219 nM | Kd ([9]; read-out: NCoR Kd, WT, ligand-bound, run 2): 157 nM | Kd ([9]; read-out: NCoR WT Kd, Supp. Table 1, wt PPARγ LBD, FITC peptide 50 nM, fluorescence anisotropy, pH 7.4, 2 h room temperature, average of two technical replicates): 420 nM | Kd ([9]; read-out: NCoR dissociation constant average, wt, Supp. Fig. 11): 255 nM | effect on affinity/recruitment of NCoR CoRNR peptide ([9]; versus apo): increase affinity | Kd ([10]; Supp. Fig. 12, read-out: SMRT dissociation constant average, wt): 634 nM | SMRT Kd mean difference ±SE, Apo vs ligand ([10]; Supp. Table 4, wt, 9 df): 923 ±178 | Kd ([10]; run SMRT FP 4 5 18, read-out: SMRT dissociation constant, WT): 445 nM | Kd ([10]; run SMRT FP 4 6 18, read-out: SMRT dissociation constant, WT): 482 nM | Kd ([10]; run SMRT FP 4 10 18, read-out: SMRT dissociation constant, WT): 976 nM | effect on affinity/recruitment of SMRT CoRNR peptide ([10]; versus apo): increase affinity | SMRT Kd, wt vs K347A mean difference ± SE ([11]; Supp. Fig. 12): 64 ± 631 | Kd ([11]; Supp. Fig. 12, read-out: SMRT dissociation constant average, K347A): 570 nM | Kd ([11]; run SMRT FP 4 5 18, read-out: SMRT dissociation constant, K347A): 527 nM | Kd ([11]; run SMRT FP 4 6 18, read-out: SMRT dissociation constant, K347A): 638 nM | Kd ([11]; run SMRT FP 4 10 18, read-out: SMRT dissociation constant, K347A): 546 nM | Kd (K347A PPARg LBD; data set 2 28 18 FP inverse agonism, read-out: dissociation constant): 692 nM | Kd (K347A PPARg LBD; data set FP K329A K347A 3 20 18, read-out: dissociation constant): 488 nM
